According to paper PMC7016952, “Characterization of the Menin-MLL Interaction as Therapeutic Cancer Target” (Cancers, 2020):

How the values were obtained:
MOLM-13 cells = assay: Proliferation inhibition, MOLM-13; format: cell-based, human
MV4;11 xenograft = MV4;11 xenograft efficacy; format: in vivo, mice
Protocol: Tumor cells were injected subcutaneously into the flanks of 6- to 9-week old animals. Efficacy studies in xenograft models were performed at Bayer or EPO GmbH (Berlin-Buch, Germany) using NMRI nu/nu, SCID, BALB/c Nude female mice or SCID male mice (VCaP tumors). All animal studies were conducted in accordance with the animal welfare laws and were approved by the State Office for Health and Social Affairs Berlin (LAGeSo). Experiments were run under the animal license B3600a0007. Compound treatment started at a predefined tumor size or burden or at a predefined day after cell inoculation. […] Subcutaneous tumor volumes were determined by caliper measurement.

VCaP cells = assay: RNA-seq after R1881 stimulation, VCaP; format: cell-based, human
Protocol: (§1) Total RNA was isolated using RNeasy-Plus Mini kit (Qiagen, Hilden, Germany). RNA (1 μg) was reverse transcribed using SuperScript III First-Strand Synthesis SuperMix (Life Technologies) and the generated cDNA was analyzed with commercial primers (Supplementary Materials Table S1) by qRT-PCR using TaqMan Fast Advanced Master Mix (Life Technologies). For the RNA-seq study, ZR-75-1, BT474, PANC-1, MiaPaCa-2, 22RV1, JMSU-1, DLD-1, SW1463, LoVo and G401 cells were treated with 5 µM BAY-155 or DMSO for 48 h prior to RNA extraction. After 48 h of 5 µM BAY-155 or DMSO treatment, MCF7, VCaP and LNCaP cells were stimulated for further 12 h with 0.1 nM of E2 (ß-Estradiol) or 1 nM R1881, respectively. MCF7, VCaP and LNCaP cells were cultured in starvation medium (containing 5 µM BAY-155 or DMSO) 6 h before stimulation. RNA was isolated using RNeasy-Plus Mini kit (Qiagen). The purified RNA was used for library preparation (Illumina, San Diego, CA, USA. TruSeq Stranded mRNA Kit) and the generated libraries were sequenced (Illumina, HiSeq2500 HTv4, SR, dual-indexing, 50 cycles).
RNA-seq reads were aligned to hg38 using STAR aligner. Protein-coding genes with more than 10 reads in more than three samples were used for the analysis (total samples N = 86; genes N = 13,003). DESeq2 was used to find genes differentially expressed upon treatment by the menin inhibitor in each cell line compared to DMSO or hormonal treatment (for MCF-7, LNCaP and VCaP cell lines). […] GSEA analysis was run on the pre-ranked list based on logFC in prostate (VCaP and LNCaP) and breast (MCF7) cell lines. Data are available at GEO under accession number GSE136272.

[1] = tested on: MEIS1, MNDA and CD11b expression in MV4;11 and MOLM-13 xenografts; assay: Ex vivo gene expression in MV4;11 and MOLM-13 xenografts; set-up: species or system mice; conditions: 17 (MV4;11) or 11 (MOLM-13) days of treatment
Protocol: as §1
Tumors were harvested, dissociated and total RNA was extracted using the TissueLyser (Qiagen, Hilden, Germany) together with RNeasy-Plus Mini kit according to the manufacturer protocol.

CYP enzymes = conditions: cited from earlier work
CYP 1A2 = CYP 1A2 (Homo sapiens, UniProt P05177); conditions: cited from earlier work
CYP 1A2, sequence (P05177 whole entry): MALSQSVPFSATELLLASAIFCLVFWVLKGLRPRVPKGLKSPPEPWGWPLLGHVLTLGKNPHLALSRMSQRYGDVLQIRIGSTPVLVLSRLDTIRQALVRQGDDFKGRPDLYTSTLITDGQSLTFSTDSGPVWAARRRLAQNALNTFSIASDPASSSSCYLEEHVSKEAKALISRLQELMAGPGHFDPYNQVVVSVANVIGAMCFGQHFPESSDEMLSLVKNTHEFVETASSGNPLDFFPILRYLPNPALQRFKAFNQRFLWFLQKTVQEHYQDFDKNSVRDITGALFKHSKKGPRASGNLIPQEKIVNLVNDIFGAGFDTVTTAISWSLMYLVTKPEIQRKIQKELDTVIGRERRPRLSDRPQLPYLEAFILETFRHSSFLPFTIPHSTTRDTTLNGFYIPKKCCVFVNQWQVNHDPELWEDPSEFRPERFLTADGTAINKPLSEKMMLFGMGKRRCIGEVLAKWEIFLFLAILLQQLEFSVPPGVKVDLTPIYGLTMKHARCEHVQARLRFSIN

[2] = tested on: T1, menin protein levels in VCaP cells; assay: Western blot of menin protein level; format: cell-based, human; conditions: Western blot
T1 construct: endogenous in cells; host or cells: VCaP

PANC-1 cells = assay: RNA-seq differential gene expression, PANC-1; format: cell-based; conditions: PANC-1, 5 µM, 48 h
Protocol: as §1
RNA-seq reads were aligned to hg38 using STAR aligner. Protein-coding genes with more than 10 reads in more than three samples were used for the analysis (total samples N = 86; genes N = 13,003). […]

[3] = cited from earlier work
RKO xenograft = RKO xenograft efficacy; format: in vivo, mice
Protocol: (§2) Tumor cells were injected subcutaneously into the flanks of 6- to 9-week old animals. Efficacy studies in xenograft models were performed at Bayer or EPO GmbH (Berlin-Buch, Germany) using NMRI nu/nu, SCID, BALB/c Nude female mice or SCID male mice (VCaP tumors). All animal studies were conducted in accordance with the animal welfare laws and were approved by the State Office for Health and Social Affairs Berlin (LAGeSo). Experiments were run under the animal license B3600a0007. Compound treatment started at a predefined tumor size or burden or at a predefined day after cell inoculation. BAY-155 was administered orally (p.o.) at various doses and regorafenib, tamoxifen and enzalutamide (resuspended in PEG400/H2O 6/4 or PEG400/EtOH 9/1) were used as control treatment for RKO, MCF7 and VCaP xenografts, respectively. Subcutaneous tumor volumes were determined by caliper measurement.

CYP 2C8 = CYP 2C8 (Homo sapiens, UniProt P10632); conditions: cited from earlier work
CYP 2C8, sequence (P10632 whole entry): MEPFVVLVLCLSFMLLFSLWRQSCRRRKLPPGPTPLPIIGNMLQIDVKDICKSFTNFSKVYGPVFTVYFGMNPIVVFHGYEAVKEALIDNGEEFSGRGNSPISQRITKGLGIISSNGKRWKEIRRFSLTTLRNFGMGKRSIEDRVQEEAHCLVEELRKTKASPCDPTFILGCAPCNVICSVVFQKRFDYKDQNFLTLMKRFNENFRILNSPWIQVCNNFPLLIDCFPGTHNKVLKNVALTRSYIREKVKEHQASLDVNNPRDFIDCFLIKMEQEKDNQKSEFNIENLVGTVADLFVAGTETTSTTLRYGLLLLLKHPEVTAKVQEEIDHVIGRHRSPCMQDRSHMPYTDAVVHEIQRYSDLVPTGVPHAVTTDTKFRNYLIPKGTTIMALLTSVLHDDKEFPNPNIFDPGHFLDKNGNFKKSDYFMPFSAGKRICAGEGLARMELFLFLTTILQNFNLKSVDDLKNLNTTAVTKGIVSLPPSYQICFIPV

CYP 2C9 = CYP 2C9 (Homo sapiens, UniProt P11712); conditions: cited from earlier work
CYP 2C9, sequence (P11712 whole entry): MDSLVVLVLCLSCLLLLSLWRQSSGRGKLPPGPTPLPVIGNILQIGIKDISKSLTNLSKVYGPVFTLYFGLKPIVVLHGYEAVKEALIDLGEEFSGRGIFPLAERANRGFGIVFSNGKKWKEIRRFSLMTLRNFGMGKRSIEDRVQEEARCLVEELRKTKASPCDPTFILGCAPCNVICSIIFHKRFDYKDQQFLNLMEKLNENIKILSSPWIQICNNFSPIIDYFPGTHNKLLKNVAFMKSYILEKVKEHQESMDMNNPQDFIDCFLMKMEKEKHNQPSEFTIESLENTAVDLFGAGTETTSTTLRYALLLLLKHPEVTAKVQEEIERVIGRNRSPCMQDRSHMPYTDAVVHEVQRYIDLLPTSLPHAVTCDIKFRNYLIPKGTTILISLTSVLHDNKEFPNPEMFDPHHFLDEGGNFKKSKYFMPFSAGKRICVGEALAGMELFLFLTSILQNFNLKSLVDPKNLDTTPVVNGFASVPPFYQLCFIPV

[4] = tested on: 401 cancer cell lines derived from 28 tissues of origin; assay: Cell line proliferation panel (OmniScreen, 401 cancer cell lines); format: cell-based
Protocol: The characterization of proliferation effects in 401 cancer cell lines was performed on the OmniScreen™ platform (CrownBio). Briefly, cells were seeded at the appropriate density for a five-day growth period and treated with BAY-155 (10 µM maximal concentration with 3.16-fold serial dilutions with 9 dose levels) or left untreated as control. For determination of viability the CellTiter-Glo® Luminescent Cell Viability Assay (Promega, Madison, WI, USA) was used. For absolute IC50 determination, a dose-response curve was fitted using a nonlinear regression model with a sigmoidal dose-response using GraphPad Prism 5.0. The surviving rate (%) = (LumTest-LumMedium control)/(LumNon-treated-LumMedium control) × 100%.

CYP 2D6 = CYP 2D6 (Homo sapiens, UniProt P10635); conditions: cited from earlier work
CYP 2D6, sequence (P10635 whole entry): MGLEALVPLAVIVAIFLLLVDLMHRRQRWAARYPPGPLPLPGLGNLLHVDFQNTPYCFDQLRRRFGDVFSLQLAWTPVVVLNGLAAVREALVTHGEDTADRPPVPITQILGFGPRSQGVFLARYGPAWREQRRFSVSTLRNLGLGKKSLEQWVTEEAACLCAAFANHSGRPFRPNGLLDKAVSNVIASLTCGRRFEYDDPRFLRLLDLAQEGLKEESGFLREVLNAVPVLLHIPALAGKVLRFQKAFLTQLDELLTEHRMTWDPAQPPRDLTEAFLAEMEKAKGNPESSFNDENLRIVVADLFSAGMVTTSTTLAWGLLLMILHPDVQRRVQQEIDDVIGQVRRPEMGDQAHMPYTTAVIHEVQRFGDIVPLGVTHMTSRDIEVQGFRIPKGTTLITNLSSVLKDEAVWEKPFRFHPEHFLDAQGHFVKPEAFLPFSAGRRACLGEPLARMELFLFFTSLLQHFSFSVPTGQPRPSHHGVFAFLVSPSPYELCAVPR

KYSE-150 xenograft = KYSE-150 xenograft efficacy; format: in vivo, mice; conditions: 120 mg/kg QD p.o.
Protocol: as §2

Cc1c(CN2CCC3(CC2)CN(c2ncnc4sc(CC(F)(F)F)cc24)C3)ccc2c1cc(C#N)n2CC(N)=O [BAY-155]
fold improved proliferation inhibition vs MI-503 (MOLM-13 cells): 6.3 fold
body weight (MV4;11 xenograft; 180 mg/kg 2QD p.o.): no evidence of body weight loss
tumor volume T/C (MV4;11 xenograft; 180 mg/kg 2QD p.o., regression): < 0.02
tumor weights (MV4;11 xenograft; p.o.): clear concentration-dependent trend for reduced tumor weights
GSEA of androgen-regulated gene sets (VCaP cells): significant reversal of androgen-induced gene expression changes
genes down-regulated by androgen stimulation that were elevated (VCaP cells; 5 µM, R1881): 182 genes
genes up-regulated by androgen stimulation that were repressed (VCaP cells; 5 µM, R1881): 36 genes
MEIS1 expression ex vivo [1]: concentration-dependent and significant down-regulation
MNDA and CD11b expression ex vivo [1]: up-regulation
inhibition of CYP enzymes (in words) (CYP enzymes): no inhibition
IC50 (CYP 1A2): > 20 µM
menin protein levels [2]: reduce menin protein levels in a time- and concentration-dependent manner
number of differentially expressed genes (PANC-1 cells): 346 genes
in vivo CL blood Rat [3]: 18.3 mL/min/kg
in vivo F Rat [3]: 15.3%
tumor volume and weight (anti-growth effects) (RKO xenograft): no significant anti-growth effects
IC50 (CYP 2C8): > 20 µM
IC50 (CYP 2C9): > 20 µM
proliferation of cancer models originating from breast, prostate or bone [4]: not affected
sensitivity of all tested MLL-AF4, MLL-AF9 and MLL-TD leukemia cell lines [4]: sensitive
IC50 ([4]; 120 h, read-out: IC50 in the vast majority of tested cell line models): > 10 µM
sensitivity of KYSE-150 and RKO cells in the in vitro screen ([4]; IC50 in similar range to MV4;11 and MOLM-13): highly sensitive
share of liver-derived models with reduced proliferation ([4]; n = 33, IC50 below 5 µM taken as significant): 30%
share of blood cell-derived models with reduced proliferation ([4]; n = 73, IC50 below 5 µM taken as significant): 26%
IC50 (CYP 2D6): > 20 µM
tumor volume T/C (KYSE-150 xenograft): 0.67
tumor weight (KYSE-150 xenograft): significant decrease in tumor weight
